This experiment has as its target ER (Homo sapiens (Human), UniProt P03372). The experiment can be described thus: Western blot analysis (Compounds B1-B278). It counts as cell-based. Particulars: ER degradation by traditional Western blot; DC50 classes. The method in brief:
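Relative target-protein levels come from densitometry of immunoblots, normalized to GAPDH. Lysates from treated cells were prepared in RIPA buffer (pH 7.6) containing protease inhibitors, and equal protein amounts, checked by BCA, were separated on 10% gels and blotted onto PVDF.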

The values below come from US20260007681A1, “INDOLE DERIVATIVES AS ESTROGEN RECEPTOR DEGRADERS” (REGENTS OF THE UNIVERSITY OF MICHIGAN, priority 2022, published 2026).

ER, sequence (P03372 whole entry): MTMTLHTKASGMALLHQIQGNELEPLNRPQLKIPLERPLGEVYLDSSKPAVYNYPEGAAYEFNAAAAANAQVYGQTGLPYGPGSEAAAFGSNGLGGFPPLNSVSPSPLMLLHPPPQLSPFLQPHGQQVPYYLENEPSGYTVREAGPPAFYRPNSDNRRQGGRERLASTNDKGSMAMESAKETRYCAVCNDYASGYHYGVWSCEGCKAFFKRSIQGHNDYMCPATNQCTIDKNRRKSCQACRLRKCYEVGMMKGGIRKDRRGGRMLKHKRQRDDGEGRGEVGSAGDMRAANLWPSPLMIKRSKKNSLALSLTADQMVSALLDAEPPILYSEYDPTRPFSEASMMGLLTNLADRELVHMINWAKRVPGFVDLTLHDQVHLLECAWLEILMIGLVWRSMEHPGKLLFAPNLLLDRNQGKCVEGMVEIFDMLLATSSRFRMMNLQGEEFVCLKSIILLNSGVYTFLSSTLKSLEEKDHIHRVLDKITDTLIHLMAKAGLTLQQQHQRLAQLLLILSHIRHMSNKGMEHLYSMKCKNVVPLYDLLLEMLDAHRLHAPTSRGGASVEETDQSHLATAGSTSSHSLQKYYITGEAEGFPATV

`C[C@@H]1Cc2c([nH]c3ccccc23)[C@@H](c2cnc(N3CCC4(CCN(C(=O)CN5Cc6cc7c(cc6C5)C(=O)N(C5CCC(=O)NC5=O)C7=O)CC4)CC3)nc2)N1CC(F)F` (stereo partly drawn) [Compound B220, 6-(2-(9-(5-((1R,3R)-2-(2,2-difluoroethyl)-3-methyl-2,3,4,9-tetrahydro-1H-pyrido[3,4-b]indol-1-yl)pyrimidin-2-yl)-3,9-diazaspiro[5.5]undecan-3-yl)-2-oxoethyl)-2-(2,6-dioxopiperidin-3-yl)-6,7-dihydropyrrolo[3,4-f]isoindole-1,3(2H,5H)-dione]: the “Traditional Western Degradation Potency” value is recorded as “A (“A”: <10 nM)”. `C[C@@H]1Cc2c([nH]c3ccccc23)[C@@H](c2cnc(N3CCC4(CC3)CN(C(=O)CN3Cc5cc6c(cc5C3)C(=O)N(C3CCC(=O)NC3=O)C6=O)C4)nc2)N1CC(F)F` (stereo partly drawn) [Compound B221, 6-(2-(7-(5-((1R,3R)-2-(2,2-difluoroethyl)-3-methyl-2,3,4,9-tetrahydro-1H-pyrido[3,4-b]indol-1-yl)pyrimidin-2-yl)-2,7-diazaspiro[3.5]nonan-2-yl)-2-oxoethyl)-2-(2,6-dioxopiperidin-3-yl)-6,7-dihydropyrrolo[3,4-f]isoindole-1,3(2H,5H)-dione]: the “Traditional Western Degradation Potency” value is listed as “A (“A”: <10 nM)”. As to `C[C@@H]1Cc2c([nH]c3ccccc23)[C@@H](c2cnc(N3CCC(C(=O)N4CCC(N5Cc6cc7c(cc6C5)C(=O)N(C5CCC(=O)NC5=O)C7=O)CC4)CC3)nc2)N1CC(F)F` (stereo partly drawn) [Compound B222, 6-(1-(1-(5-((1R,3R)-2-(2,2-difluoroethyl)-3-methyl-2,3,4,9-tetrahydro-1H-pyrido[3,4-b]indol-1-yl)pyrimidin-2-yl)piperidine-4-carbonyl)piperidin-4-yl)-2-(2,6-dioxopiperidin-3-yl)-6,7-dihydropyrrolo[3,4-f]isoindole-1,3(2H,5H)-dione], the “Traditional Western Degradation Potency” value is on record as “A (“A”: <10 nM)”. To `C[C@@H]1Cc2c([nH]c3ccccc23)[C@@H](c2cnc(N3CCC(CN4CCC(N5Cc6cc7c(cc6C5)C(=O)N(C5CCC(=O)NC5=O)C7=O)CC4)CC3)nc2)N1CC(F)F` (stereo partly drawn) [Compound B223, 6-(1-((1-(5-((1R,3R)-2-(2,2-difluoroethyl)-3-methyl-2,3,4,9-tetrahydro-1H-pyrido[3,4-b]indol-1-yl)pyrimidin-2-yl)piperidin-4-yl)methyl)piperidin-4-yl)-2-(2,6-dioxopiperidin-3-yl)-6,7-dihydropyrrolo[3,4-f]isoindole-1,3(2H,5H)-dione] belongs “B (“B”: 10-100 nM)”; to `C[C@@H]1Cc2c([nH]c3ccccc23)[C@@H](c2ccc(N3CCC4(CC3)CN(C(=O)CN3Cc5cc6c(cc5C3)C(=O)N(C3CCC(=O)NC3=O)C6=O)C4)cc2)N1CC(F)F` (stereo partly drawn) [Compound B224, 6-(2-(7-(4-((1R,3R)-2-(2,2-difluoroethyl)-3-methyl-2,3,4,9-tetrahydro-1H-pyrido[3,4-b]indol-1-yl)phenyl)-2,7-diazaspiro[3.5]nonan-2-yl)-2-oxoethyl)-2-(2,6-dioxopiperidin-3-yl)-6,7-dihydropyrrolo[3,4-f]isoindole-1,3(2H,5H)-dione], “B (“B”: 10-100 nM)”; to `C[C@@H]1Cc2c([nH]c3ccccc23)[C@@H](c2ccc(N3CCC(C(=O)N4CCC(N5Cc6cc7c(cc6C5)C(=O)N(C5CCC(=O)NC5=O)C7=O)CC4)CC3)cc2)N1CC(F)F` (stereo partly drawn) [Compound B225, 6-(1-(1-(4-((1R,3R)-2-(2,2-difluoroethyl)-3-methyl-2,3,4,9-tetrahydro-1H-pyrido[3,4-b]indol-1-yl)phenyl)piperidine-4-carbonyl)piperidin-4-yl)-2-(2,6-dioxopiperidin-3-yl)-6,7-dihydropyrrolo[3,4-f]isoindole-1,3(2H,5H)-dione], “B (“B”: 10-100 nM)”. To `C[C@@H]1Cc2c([nH]c3ccccc23)[C@@H](c2ccc(N3CCC(CN4CCC(N5Cc6cc7c(cc6C5)C(=O)N(C5CCC(=O)NC5=O)C7=O)CC4)CC3)cc2)N1CC(F)F` (stereo partly drawn) [Compound B226, 6-(1-((1-(4-((1R,3R)-2-(2,2-difluoroethyl)-3-methyl-2,3,4,9-tetrahydro-1H-pyrido[3,4-b]indol-1-yl)phenyl)piperidin-4-yl)methyl)piperidin-4-yl)-2-(2,6-dioxopiperidin-3-yl)-6,7-dihydropyrrolo[3,4-f]isoindole-1,3(2H,5H)-dione] belongs “B (“B”: 10-100 nM)”; to `C[C@@H]1Cc2c([nH]c3ccccc23)[C@@H](c2ccc(N3CCC4(CCN(C(=O)CN5Cc6cc7c(cc6C5)C(=O)N(C5CCC(=O)NC5=O)C7=O)CC4)CC3)cc2)N1CC(F)F` (stereo partly drawn) [Compound B227, 6-(2-(9-(4-((1R,3R)-2-(2,2-difluoroethyl)-3-methyl-2,3,4,9-tetrahydro-1H-pyrido[3,4-b]indol-1-yl)phenyl)-3,9-diazaspiro[5.5]undecan-3-yl)-2-oxoethyl)-2-(2,6-dioxopiperidin-3-yl)-6,7-dihydropyrrolo[3,4-f]isoindole-1,3(2H,5H)-dione], “B (“B”: 10-100 nM)”; to `C[C@@H]1Cc2c([nH]c3ccccc23)[C@@H](c2ccc(N3CCC4(CCN(C(=O)CN5Cc6cc7c(cc6C5)C(=O)N(C5CCC(=O)NC5=O)C7=O)CC4)CC3)cn2)N1CC(F)F` (stereo partly drawn) [Compound B228, 6-(2-(9-(6-((1S,3R)-2-(2,2-difluoroethyl)-3-methyl-2,3,4,9-tetrahydro-1H-pyrido[3,4-b]indol-1-yl)pyridin-3-yl)-3,9-diazaspiro[5.5]undecan-3-yl)-2-oxoethyl)-2-(2,6-dioxopiperidin-3-yl)-6,7-dihydropyrrolo[3,4-f]isoindole-1,3(2H,5H)-dione], “C (“C”: >100 nM)”. To `C[C@@H]1Cc2c([nH]c3ccccc23)[C@@H](c2ccc(N3CCC4(CCN(C(=O)CN5Cc6cc7c(cc6C5)C(=O)N(C5CCC(=O)NC5=O)C7=O)CC4)CC3)nc2)N1CC(F)F` (stereo partly drawn) [Compound B229, 6-(2-(9-(5-((1R,3R)-2-(2,2-difluoroethyl)-3-methyl-2,3,4,9-tetrahydro-1H-pyrido[3,4-b]indol-1-yl)pyridin-2-yl)-3,9-diazaspiro[5.5]undecan-3-yl)-2-oxoethyl)-2-(2,6-dioxopiperidin-3-yl)-6,7-dihydropyrrolo[3,4-f]isoindole-1,3(2H,5H)-dione] belongs “B (“B”: 10-100 nM)”. For the compound `C[C@@H]1Cc2c([nH]c3ccccc23)[C@@H](c2ccc(N3CCC4(CCN(CC(=O)N5Cc6cc7c(cc6C5)C(=O)N(C5CCC(=O)NC5=O)C7=O)CC4)CC3)cn2)N1CC(F)F` (stereo partly drawn) [Compound B230, 6-(2-(9-(6-((1S,3R)-2-(2,2-difluoroethyl)-3-methyl-2,3,4,9-tetrahydro-1H-pyrido[3,4-b]indol-1-yl)pyridin-3-yl)-3,9-diazaspiro[5.5]undecan-3-yl)acetyl)-2-(2,6-dioxopiperidin-3-yl)-6,7-dihydropyrrolo[3,4-f]isoindole-1,3(2H,5H)-dione], the “Traditional Western Degradation Potency” value was “C (“C”: >100 nM)”. As to `C[C@@H]1Cc2c([nH]c3ccccc23)[C@@H](c2ccc(N3CCC4(CCN(C(=O)CN5Cc6cc7c(cc6C5)C(=O)N(C5CCC(=O)NC5=O)C7=O)CC4)CC3)cc2F)N1CC(F)F` (stereo partly drawn) [Compound B231, 6-(2-(9-(4-((1R,3R)-2-(2,2-difluoroethyl)-3-methyl-2,3,4,9-tetrahydro-1H-pyrido[3,4-b]indol-1-yl)-3-fluorophenyl)-3,9-diazaspiro[5.5]undecan-3-yl)-2-oxoethyl)-2-(2,6-dioxopiperidin-3-yl)-6,7-dihydropyrrolo[3,4-f]isoindole-1,3(2H,5H)-dione], the “Traditional Western Degradation Potency” value is “B (“B”: 10-100 nM)”.
